Assay results reported in publication PMC9687812, “Discovery of Trace Amine-Associated Receptor 1 (TAAR1) Agonist 2-(5-(4′-Chloro-[1,1′-biphenyl]-4-yl)-4H-1,2,4-triazol-3-yl)ethan-1-amine (LK00764) for the Treatment of Psychotic Disorders” (Biomolecules, 2022).
Like-named read-outs stand apart in the source and are kept apart here.

How the values were obtained:
TAAR1 = molecular target: T1, TAAR1 (Homo sapiens, UniProt Q96RJ0); assay: BRET-based cellular cAMP (EPAC biosensor) assay of TAAR1 agonism in transfected HEK-293 cells; settings: for Emax: HEK293, read-out: Emax: maximum observed activation of TAAR1 relative to that observed for 1 μM of β-PEA; for Emax: maximum observed activation of TAAR1 relative to that observed for 1 μM of β-PEA: relative to 1 μM β-PEA, mean from 3 BRET assays, errors ±5–10%
T1 sequence (Q96RJ0 1-339): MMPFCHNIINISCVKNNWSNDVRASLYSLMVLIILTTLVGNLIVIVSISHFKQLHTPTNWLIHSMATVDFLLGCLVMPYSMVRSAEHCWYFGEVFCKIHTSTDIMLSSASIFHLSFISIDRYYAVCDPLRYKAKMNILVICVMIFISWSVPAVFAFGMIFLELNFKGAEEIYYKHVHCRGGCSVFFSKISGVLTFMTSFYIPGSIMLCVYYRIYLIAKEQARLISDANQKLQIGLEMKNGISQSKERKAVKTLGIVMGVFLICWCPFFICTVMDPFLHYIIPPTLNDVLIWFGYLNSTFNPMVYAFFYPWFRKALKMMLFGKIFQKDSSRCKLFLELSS

[1] = TAAR1 activation, BRET assay, HEK-293, mean from 3 assays

Compound | melting point [°C] | EC50 (TAAR1) [µM] | Emax (TAAR1) [%] | EC50 (TAAR1; [1]) | Emax: maximum observed activation of TAAR1 relative to that observed for 1 μM of β-PEA (TAAR1)
Cl.NCCc1nnc(-c2ccc(OCc3ccccc3F)cc2)[nH]1 [Compound 43, 2-(5-(4-[(2-Fluorobenzyl)oxy]phenyl)-4H-1,2,4-triazol-3-yl)ethan-1-amine Hydrochloride] | 232 to 235 | 0.045 | 114 | – | –
Cl.NCCc1nnc(-c2ccc(-c3ccc(OC(F)(F)F)cc3)cc2)[nH]1 [Compound 59, 2-(5-(4′-Trifluoromethoxy-(1,1′-biphenyl)-4-yl)-4H-1,2,4-triazol-3-yl)ethan-1-amine Hydrochloride] | 299 to 300 | 0.013 | 95 | – | –
Cl.NCCc1nnc(-c2ccc(-c3ccc(F)cc3F)cc2)[nH]1 [Compound 61, 2-(5-(2′,4′-Difluoro-(1,1′-biphenyl)-4-yl)-4H-1,2,4-triazol-3-yl)ethan-1-amine Hydrochloride] | 251 to 253 | 0.018 | 93 | – | –
Cc1ccc(Oc2cccc(-c3nnc(CCN)[nH]3)c2)c(C)c1.Cl.Cl [Compound 52, 2-(5-(3-[2,4-Dimethylphenoxy]phenyl)-4H-1,2,4-triazol-3-yl)ethan-1-amine Hydrochloride Hydrochloride] | 308 to 310 | > 1 | 79 | – | –
Cl.NCCc1nnc(-c2cccc(C(F)(F)F)c2)[nH]1 [Compound 8, 2-(5-(3-[Trifluoromethyl]phenyl)-4H-1,2,4-triazol-3-yl)ethan-1-amine Hydrochloride] | – | – | – | 0.21 µM | 108
Cc1cc(-c2nnc(CCN)[nH]2)ccc1OCc1ccc(F)cc1.Cl [Compound 48, 2-(5-(4-[(4-Fluorobenzyl)oxy]-3-methylphenyl)-4H-1,2,4-triazol-3-yl)ethan-1-amine Hydrochloride] | 182 to 183 | 0.163 | 98 | – | –
Cc1ccc(Oc2ccc(-c3nnc(CCN)[nH]3)cc2)cc1C.Cl [Compound 51, 2-(5-(4-[3,4-Dimethylphenoxy]phenyl)-4H-1,2,4-triazol-3-yl)ethan-1-amine Hydrochloride] | 201 to 203 | 0.9 | 77 | – | –
Cc1ccc(-c2nnc(CCN)[nH]2)cc1C.Cl [Compound 37, 2-(5-(3,4-Dimethylphenyl)-4H-1,2,4-triazol-3-yl)ethan-1-amine Hydrochloride] | 231 to 234 | > 1 | 70 | – | –
Cl.NCCc1nnc(-c2ccc(OCc3cccc(F)c3)cc2)[nH]1 [Compound 44, 2-(5-(4-[(3-Fluorobenzyl)oxy]phenyl)-4H-1,2,4-triazol-3-yl)ethan-1-amine Hydrochloride] | 214 to 216 | 0.03 | 112 | – | –
Cl.NCCc1nnc(C(c2ccccc2)c2ccccc2)[nH]1 [Compound 13, 2-(5-(Diphenylmethyl)-4H-1,2,4-triazol-3-yl)ethan-1-amine Hydrochloride] | 236 to 237 | – | – | inactive | inactive
Cc1cc(-c2nnc(CCN)[nH]2)ccc1OCc1ccccc1F.Cl [Compound 46, 2-(5-(4-[(2-Fluorobenzyl)oxy]-3-methylphenyl)-4H-1,2,4-triazol-3-yl)ethan-1-amine Hydrochloride] | 234 to 236 | 0.398 | 82 | – | –
Cl.NCCc1nnc(-c2ccccc2)[nH]1 [Compound 22, 2-(5-Phenyl-4H-1,2,4-triazol-3-yl)ethan-1-amine Hydrochloride] | 250 to 252 | 0.283 | 118 | – | –
Cl.NCCc1nnc(-c2ccc(-c3cccc(C(F)(F)F)c3)cc2)[nH]1 [Compound 63, 2-(5-(3′-Trifluoromethyl-(1,1′-biphenyl)-4-yl)-4H-1,2,4-triazol-3-yl)ethan-1-amine Hydrochloride] | 210 to 212 | 0.25 | 76 | – | –
Cl.NCCc1nnc(-c2cc(Cl)cc(Cl)c2)[nH]1 [Compound 21, 2-(5-(3,5-Dichlorophenyl)-4H-1,2,4-triazol-3-yl)ethan-1-amine Hydrochloride] | 222 to 224 | 0.023 | 112 | – | –
Cl.NCCc1nnc(-c2ccc([N+](=O)[O-])cc2)[nH]1 [Compound 14, 2-(5-(4-Nitrophenyl)-4H-1,2,4-triazol-3-yl)ethan-1-amine Hydrochloride] | 239 to 240 | – | – | inactive | inactive
Cc1ccccc1-c1nnc(CCN)[nH]1.Cl [Compound 23, 2-(5-(2-Methylphenyl)-4H-1,2,4-triazol-3-yl)ethan-1-amine Hydrochloride] | 235 to 236 | 0.468 | 116 | – | –
Cc1ccc(Oc2ccc(-c3nnc(CCN)[nH]3)cc2)cc1.Cl [Compound 54, 2-(5-(4-[4-Methylphenoxy]phenyl)-4H-1,2,4-triazol-3-yl)ethan-1-amine Hydrochloride] | 234 to 236 | 0.15 | 94 | – | –

Compound | melting point [°C] | EC50 (TAAR1) [µM] | Emax (TAAR1) [%] | EC50 (TAAR1; [1]) | Emax: maximum observed activation of TAAR1 relative to that observed for 1 μM of β-PEA (TAAR1)
COc1ccc(-c2ccc(-c3nnc(CCN)[nH]3)cc2)cc1.Cl [Compound 58, 2-(5-(4′-Methoxy-(1,1′-biphenyl)-4-yl)-4H-1,2,4-triazol-3-yl)ethan-1-amine Hydrochloride] | 300 to 301 | 0.006 | 97 | – | –
Cc1cc(C)cc(-c2nnc(CCN)[nH]2)c1.Cl [Compound 31, 2-(5-(3,5-Dimethylphenyl)-4H-1,2,4-triazol-3-yl)ethan-1-amine Hydrochloride] | 232 to 234 | 0.813 | 117 | – | –
COc1ccc(-c2nnc(CCN)[nH]2)cc1OC.Cl [Compound 11, 2-(5-(3,4-Dimethoxyphenyl)-4H-1,2,4-triazol-3-yl)ethan-1-amine Hydrochloride] | 209 to 210 | – | – | inactive | inactive
Cl.NCCc1nnc(-c2ccc(-c3cccc(F)c3)cc2)[nH]1 [Compound 60, 2-(5-(3′-Fluoro-(1,1′-biphenyl)-4-yl)-4H-1,2,4-triazol-3-yl)ethan-1-amine Hydrochloride] | 260 to 262 | 0.026 | 95 | – | –
Cl.NCCc1nnc(-c2ccncc2)[nH]1 [Compound 10, 2-(5-(Pyridin-4-yl)-4H-1,2,4-triazol-3-yl)ethan-1-amine Hydrochloride] | 257 to 258 | – | 47 | > 1 µM | –
Cl.NCCc1nnc(-c2cccc(-c3ccc(OC(F)(F)F)cc3)c2)[nH]1 [Compound 67, 2-(5-(4′-(Trifluoromethoxy)-(1,1′-biphenyl)-3-yl)-4H-1,2,4-triazol-3-yl)ethan-1-amine Hydrochloride] | 253 to 257 | 0.096 | 94 | – | –
Cl.NCCc1nnc(-c2cccc(O)c2)[nH]1 [Compound 55, 3-(5-(2-Aminoethyl)-4H-1,2,4-triazol-3-yl)phenol Hydrochloride] | 234 to 235 | > 1 | 88 | – | –
Cl.NCCc1nnc(-c2ccc(OCc3ccccc3)cc2)[nH]1 [Compound 19, 2-(5-(4-(Benzyloxy)phenyl)-4H-1,2,4-triazol-3-yl)ethan-1-amine Hydrochloride] | 238 to 240 | 0.026 | 113 | double-digit nanomolar range | –
Cl.NCCc1nnc(-c2cccc(-c3ccc(F)cc3F)c2)[nH]1 [Compound 66] | – | – | – | – | 91
2-(5-(3-Methyl-4-[([4-(trifluoromethyl)benzyl]oxy)phenyl]-4H-1,2,4-triazol-3-yl)) Hydrochloride [Compound 49] | – | – | – | inactive | inactive
CN(C)c1cccc(-c2nnc(CCN)[nH]2)c1.Cl [Compound 24, 3-(5-(2-Aminoethyl)-4H-1,2,4-triazol-3-yl)-N,N-dimethylaniline Hydrochloride] | – | – | – | inactive | inactive
2-(5-(4-Ethylphenyl)-4H-1,2,4-triazol-3-yl)ethan-1-amine Hydrochloride [Compound 26] | – | – | – | > 1 µM | 71
Cl.NCCc1nnc(-c2ccccc2[N+](=O)[O-])[nH]1 [Compound 27, 2-(5-(2-Nitrophenyl)-4H-1,2,4-triazol-3-yl)ethan-1-amine Hydrochloride] | – | – | – | > 1 µM | 69
2-(5-(2-[3,4-Difluorophenoxy]phenyl)-4H-1,2,4-triazol-3-yl) Hydrochloride [Compound 50] | – | – | – | inactive | inactive
Cl.NCCc1nnc(-c2cccc(C(F)(F)F)c2)[nH]1 [Compound 18] | – | – | – | inactive | inactive
Cl.NCCc1nnc(-c2cccc(-c3ccc(F)cc3F)c2)[nH]1 [Compound 66, 2-(5-(4′-(2′,4′-Difluoro-(1,1′-biphenyl)-3-yl)-4H-1,2,4-triazol-3-yl)ethan-1-amine Hydrochloride] | – | – | – | 0.3 µM | –
